Among the data in ChEMBL document CHEMBL1667726, “Macrophyllionium and macrophyllines A and B, oxindole alkaloids from Uncaria macrophylla” (J Nat Prod, 2011) are IC50 values, retold here.

Broadly, the IC50 is the concentration that inhibits the measured activity by half.

In experiment [1] the test system is Aorta. Put plainly: Vasodilatory activity in Sprague-Dawley rat thoracic aorta smooth muscle assessed as inhibition of KCL-induced vasoconstriction. It is filed as functional, tissue-based.
In a further experiment the test system is SW480. Nature of the experiment: Cytotoxicity against human SW480 cells after 48 hrs by MTT assay. The class given is functional, cell-based. The conditions noted are these: SW480, 48 h. Background: Tetrazolium dyes change colour on reduction, which living cells bring about.
The test system of the next experiment is HL-60. Put plainly: Cytotoxicity against human HL60 cells after 48 hrs by MTT assay. The class given is functional, cell-based. Conditions: HL-60, 48 h.
In experiment [2] the test system is Aorta. Put plainly: Vasodilatory activity in Sprague-Dawley rat thoracic aorta smooth muscle assessed as inhibition of phenylephrine-induced vasoconstriction. The class given is functional, tissue-based.

≈ marks a conversion by molar mass, not a printed value. Where only a bound is given, the exact number is not on record here.

For `CC[C@@H]1CN2CCc3c([nH]c4ccccc34)[C@@H]2C[C@@H]1/C(=C/OC)C(=O)OC` [CORYNANTHEIDINE], the IC50 with Aorta [1] was greater than 30 µg/mL; in the experiment on SW480, 23.3 µM; in the experiment on HL-60, 14 µM; in the experiment on Aorta [2], greater than 30 µg/mL.

Consider `CC[C@@H]1CN2CC[C@]3(C(=O)Nc4ccccc43)[C@@H]2C[C@@H]1/C(=C\OC)C(=O)OC` [CORYNOXINE B], for which the IC50 in the experiment with Aorta [1] is greater than 30 µg/mL; in the experiment with SW480, greater than 40 µM; in the experiment on HL-60, greater than 40 µM; in the experiment with Aorta [2] it was greater than 30 µg/mL.

On to `CC[C@@H]1CN2CC[C@@]3(C(=O)Nc4ccccc43)[C@@H]2C[C@@H]1/C(=C\OC)C(=O)OC` [CORYNOXINE], for which the IC50 is greater than 30 µg/mL in the experiment with Aorta [1], greater than 40 µM with SW480, greater than 40 µM in the experiment with HL-60 and greater than 30 µg/mL in the experiment on Aorta [2].

Regarding `CC[C@H]1CN2CCc3c([nH]c4ccccc34)[C@@H]2C[C@@H]1/C(=C/OC)C(=O)OC` [DIHYDROCORYNANTHEINE], the IC50 in the experiment on Aorta [1] was 6.73 µg/mL (≈ 18.3 µM); in the experiment with SW480, greater than 40 µM; in the experiment on HL-60, greater than 40 µM; with Aorta [2], 21.8 µg/mL (≈ 59.2 µM).

On to `CC[C@H]1CN2CC[C@@]3(C(=O)Nc4ccccc43)[C@@H]2C[C@@H]1/C(=C\OC)C(=O)OC` [ISORHYNCHOPHYLLINE], for which the IC50 with Aorta [1] is greater than 30 µg/mL; in the experiment on SW480 it was greater than 40 µM; with HL-60 it was greater than 40 µM; in the experiment with Aorta [2] it was 18.4 µg/mL (≈ 47.9 µM).

Consider `CC[C@@H]1[C@@H](/C(=C/OC)C(=O)OC)C[C@@H]2N(CC[C@]23C(=O)Nc2ccccc23)[C@H]1CC(C)=O` [MACROPHYLLINE A], for which the IC50 with Aorta [1] was greater than 30 µg/mL; in the experiment with SW480, greater than 40 µM; with HL-60, greater than 40 µM; with Aorta [2] it was 15.9 µg/mL (≈ 36 µM).

As for `CC[C@@H]1[C@@H](/C(=C/OC)C(=O)OC)C[C@@H]2N(CC[C@@]23C(=O)Nc2ccccc23)[C@H]1CC(C)=O` [MACROPHYLLINE B], the half-maximal inhibitory concentration (IC50) is greater than 30 µg/mL with Aorta [1], greater than 40 µM with SW480, greater than 40 µM with HL-60 and greater than 30 µg/mL in the experiment on Aorta [2].

As for `CC[C@H]1C[N@@+]2(C)CC[C@]3(C([O-])=Nc4ccccc43)[C@H]2C[C@@H]1/C(=C/OC)C(=O)OC` [MACROPHYLLIONIUM], the IC50 with Aorta [1] is greater than 30 µg/mL; in the experiment on SW480, greater than 40 µM; with HL-60, greater than 40 µM; in the experiment on Aorta [2] it was greater than 30 µg/mL.

`CC[C@H]1CN2CC[C@]3(C(=O)Nc4ccccc43)[C@@H]2C[C@@H]1/C(=C\OC)C(=O)OC` [RHYNCHOPHYLLINE]: the IC50 in the experiment on Aorta [1] is greater than 30 µg/mL; with SW480 it was greater than 40 µM; in the experiment with HL-60 it was greater than 40 µM; in the experiment on Aorta [2] it was greater than 30 µg/mL.

As for `COc1ccc(CCN(C)CCCC(C#N)(c2ccc(OC)c(OC)c2)C(C)C)cc1OC` (stereo not drawn) [VERAPAMIL], the IC50 was 1.41 µg/mL (≈ 3.1 µM) in the experiment on Aorta [1] and 0.32 µg/mL (≈ 0.704 µM) in the experiment with Aorta [2].
